# Reference: publication PMC8981703 (BMC Medicine, 2022)
# Legend:
# clinical = type: in vivo, human; details: plasma
# Method: (§1) Response assessment was performed every 28 days on day 1 of each cycle. Adverse event (AE) was assessed using the NCI Common Terminology Criteria for Adverse Events (CTCAE) version 4.03. […] Plasma concentrations were determined at the following distinct time points: pre-dose, 0.5 h, 1 h, 1.5 h, 2 h, 3 h, 4 h, 5 h, 6 h, 8 h, 10 h, 24 h, and 48 h. Pharmacokinetics ethnicity sensitivity analysis was performed to evaluate the potential impact of ethnic factors on the acceptability and difference in the data of Chinese and western patients.
# PK parameters were obtained by analyzing adequate plasma drug concentration data and calculated using the NCA model with Phoenix WinNonlin v8.3.1. The descriptive statistics of PK parameters were summarized using SAS 9.4.
# [1] = test system: Chinese patients with RRMM; experiment: MARCH: safety (TEAEs, CTCAE version 4.03), exposure, dose modification, disposition; type: in vivo
# Method: as §1
# Patients who received at least 1 dose of study treatment (modified intent-to-treat [mITT]/safety population) were used for efficacy and safety analysis. Demographics, baseline disease characteristics, and prior anti-MM therapies were summarized for the mITT populations. For the primary analysis of ORR, the primary endpoint, the sample size of 82 patients would provide 80% power to detect a statistical significance with the target ORR of 28% against the threshold ORR (i.e., null hypothesis) of 15% (one-sided α=0.025); statistical significance would be declared if the lower bound of the 95% confidence interval (CI) would be greater than 15%. Time to event endpoints including PFS, OS, and DOR were analyzed using the Kaplan-Meier method.
smiles,measurement,setting,value
"O=C(/C=C\n1cnc(-c2cc(C(F)(F)F)cc(C(F)(F)F)c2)n1)NNc1cnccn1 [selinexor, Selinexor]",Tmax,"clinical; human, po, 80 mg, single dose selinexor 80 mg oral, C1D1, read-out: median T max",2.88 h
same,AUC(0-t),"clinical; human, po, 80 mg, read-out: mean AUC0–48h",5800 ng·h/mL
same,Cmax,"clinical; human, po, 80 mg, read-out: mean C max",862 ng/mL
same,half-life,"clinical; human, po, 80 mg, read-out: mean t 1/2 (converted)",6 h
same,median T max,"clinical; single dose selinexor 80 mg oral, C1D1",3 h
same,median number of dose reductions,[1]; among the patients with dose reductions,2
same,median time to the first dose reduction,[1]; in vivo,22.0 days
same,patients with a reduction to 80 mg weekly,[1]; in vivo,20.7%
same,patients with a reduction to 100–120 mg weekly,[1]; in vivo,40.2%
same,patients with dose interruptions,[1]; in vivo,75.6%
same,patients with dose reductions,[1]; in vivo,84.1%
